Values joined by “and” are separate entries in the source; they are usually repeats but may differ in a detail not shown here. Identical values can stand only once. Like-named read-outs stand apart in the source and are kept apart here.
Key:
human skin = experiment: Safety and adverse events at application sites in the pilot clinical study; assay type: in vivo; conditions: topical twice daily, any time point during the study
Protocol: Lower back of each subject was used as the test area. Five identically sized application sites (square 3 cm by 3 cm) were marked on the skin of each subject and labeled A through E. 0.1 gram of each material, as measured by extrusion from a syringe, was applied on the appropriate site, using a gloved finger, by a trained technician, guided by markings on the skin and the application site diagram. The application was carried out in an accredited outpatient facility twice daily (morning and afternoon/evening), 6 days per week (with no treatments on Sunday). The procedure was continued in the same manner for the duration of the study. Subjects 2, 3 and 4 entered the study on day 1 (Friday) and each received 48 treatments (no subject missed any of the treatments). Subjects 8, 9, and 10 entered the study on day 4 (Monday) and each received 44 treatments. No subject missed any of the treatments.
In all cases, the condition of the sites treated with Formulation E improved upon termination of the treatment.

[1] = humans, preliminary data; cited from earlier work
5-lipoxygenase (5-LO) = target: T1, 5-lipoxygenase (5-LO) (Homo sapiens, UniProt P09917); conditions: in vitro assays; cited from earlier work
T1 sequence (P09917 1-674): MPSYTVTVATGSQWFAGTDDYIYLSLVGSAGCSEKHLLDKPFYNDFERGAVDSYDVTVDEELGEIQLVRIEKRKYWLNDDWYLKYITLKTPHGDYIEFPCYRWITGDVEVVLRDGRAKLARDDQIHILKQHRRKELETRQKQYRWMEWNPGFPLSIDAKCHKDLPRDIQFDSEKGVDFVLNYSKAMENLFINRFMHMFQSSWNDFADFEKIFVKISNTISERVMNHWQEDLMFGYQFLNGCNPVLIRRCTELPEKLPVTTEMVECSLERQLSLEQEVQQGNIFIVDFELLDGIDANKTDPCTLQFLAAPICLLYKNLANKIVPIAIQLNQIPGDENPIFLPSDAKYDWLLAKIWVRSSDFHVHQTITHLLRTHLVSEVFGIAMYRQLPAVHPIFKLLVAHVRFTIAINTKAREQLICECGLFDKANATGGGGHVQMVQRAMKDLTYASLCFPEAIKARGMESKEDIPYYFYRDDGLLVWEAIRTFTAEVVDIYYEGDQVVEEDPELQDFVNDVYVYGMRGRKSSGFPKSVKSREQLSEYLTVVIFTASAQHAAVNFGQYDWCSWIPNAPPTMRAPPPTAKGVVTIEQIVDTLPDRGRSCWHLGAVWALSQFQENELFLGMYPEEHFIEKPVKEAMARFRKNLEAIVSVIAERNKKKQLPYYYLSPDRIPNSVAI

[2] = target: prostaglandin synthetase (PGS); conditions: in vitro assays; cited from earlier work
[3] = target: T2, 5-LO in intact RBL-1 cells (Rattus norvegicus, UniProt P12527); conditions: cited from earlier work
T2 construct: endogenous in cells; host or cells: RBL-1 cells
T2 sequence (P12527 1-673): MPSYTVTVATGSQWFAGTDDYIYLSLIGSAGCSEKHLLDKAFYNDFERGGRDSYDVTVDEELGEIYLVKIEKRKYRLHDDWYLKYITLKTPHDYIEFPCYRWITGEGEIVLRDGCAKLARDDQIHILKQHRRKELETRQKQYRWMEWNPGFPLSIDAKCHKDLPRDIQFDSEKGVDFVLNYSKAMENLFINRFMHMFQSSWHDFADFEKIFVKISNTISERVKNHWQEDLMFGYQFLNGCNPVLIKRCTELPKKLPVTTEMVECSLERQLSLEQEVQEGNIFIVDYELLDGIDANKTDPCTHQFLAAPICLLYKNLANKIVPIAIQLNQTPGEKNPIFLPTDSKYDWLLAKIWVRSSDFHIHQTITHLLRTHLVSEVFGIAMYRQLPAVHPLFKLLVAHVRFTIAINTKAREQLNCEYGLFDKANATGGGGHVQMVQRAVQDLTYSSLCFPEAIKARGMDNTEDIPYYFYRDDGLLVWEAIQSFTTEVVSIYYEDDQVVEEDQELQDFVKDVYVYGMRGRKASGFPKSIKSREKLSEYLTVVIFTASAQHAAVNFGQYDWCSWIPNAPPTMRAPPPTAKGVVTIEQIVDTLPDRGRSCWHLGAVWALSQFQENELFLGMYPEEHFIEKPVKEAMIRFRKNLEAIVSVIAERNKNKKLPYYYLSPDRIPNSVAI

rabbit skin edema = conditions: co-injected with arachidonic acid; cited from earlier work
[4] = target: T3, Kit autophosphorylation in M07e cells (Homo sapiens, UniProt P10721); experiment: Cellular Kit phosphorylation assay (ProQinase sandwich ELISA) in M07e cells; assay type: cell-based
T3 construct: expressing endogenously a high level of wild-type Kit; host or cells: M07e (human acute megakaryoblastic leukemia)
T3 sequence (P10721 26-976): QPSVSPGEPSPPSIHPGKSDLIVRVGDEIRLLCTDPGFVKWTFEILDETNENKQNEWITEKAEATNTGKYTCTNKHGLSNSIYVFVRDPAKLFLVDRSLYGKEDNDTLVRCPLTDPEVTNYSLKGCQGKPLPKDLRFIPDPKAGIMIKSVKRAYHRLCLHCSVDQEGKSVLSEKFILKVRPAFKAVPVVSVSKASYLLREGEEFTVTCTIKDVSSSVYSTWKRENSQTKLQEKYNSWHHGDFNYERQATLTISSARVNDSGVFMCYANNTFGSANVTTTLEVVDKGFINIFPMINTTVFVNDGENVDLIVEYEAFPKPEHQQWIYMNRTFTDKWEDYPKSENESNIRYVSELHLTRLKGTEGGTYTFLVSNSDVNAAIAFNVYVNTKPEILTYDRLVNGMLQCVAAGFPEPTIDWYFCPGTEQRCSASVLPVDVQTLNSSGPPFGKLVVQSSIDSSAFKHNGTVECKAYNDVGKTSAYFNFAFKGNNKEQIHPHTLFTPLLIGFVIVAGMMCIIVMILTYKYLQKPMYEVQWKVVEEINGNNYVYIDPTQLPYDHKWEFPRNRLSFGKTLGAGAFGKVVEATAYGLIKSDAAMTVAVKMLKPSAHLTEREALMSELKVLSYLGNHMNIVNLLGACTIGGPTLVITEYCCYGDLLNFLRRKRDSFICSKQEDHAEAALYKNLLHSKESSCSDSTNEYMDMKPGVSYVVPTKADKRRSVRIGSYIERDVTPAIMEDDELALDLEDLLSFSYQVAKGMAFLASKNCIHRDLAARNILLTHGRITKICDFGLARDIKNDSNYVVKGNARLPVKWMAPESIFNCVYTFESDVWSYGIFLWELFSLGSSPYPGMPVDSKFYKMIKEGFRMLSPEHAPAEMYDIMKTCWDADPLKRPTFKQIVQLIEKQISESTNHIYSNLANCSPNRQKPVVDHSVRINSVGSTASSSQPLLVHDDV
T3 sequence (P21583 26-190 partner limits assumed): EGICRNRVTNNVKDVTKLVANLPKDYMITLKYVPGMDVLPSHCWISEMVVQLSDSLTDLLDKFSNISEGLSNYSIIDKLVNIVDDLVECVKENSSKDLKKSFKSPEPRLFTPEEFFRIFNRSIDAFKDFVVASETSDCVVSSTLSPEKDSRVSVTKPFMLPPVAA
Protocol: The human acute megakaryoblastic leukemia cell line M07e expressing endogenously a high level of wild-type Kit was used in the cellular Kit phosphorylation assay. Stimulation of these cells with human Kit ligand results in receptor tyrosine autophosphorylation. M07e cells were plated in RPMI supplemented with 20% FCS and 10 ng/ml GM-CSF in multiwell cell culture plates. After serum- and growth factor-starvation overnight, cells were incubated with test compounds in serum-free medium. Pre-diluted test samples were added 1:100 to the cell culture medium resulting in a final DMSO concentration of 1%. After 90 minute incubation at 37° C., cells were stimulated with 100 ng/ml Kit ligand for 3 minutes. Cells treated with staurosporine were defined as Low control, and cells treated with solvent alone were defined as High control. Test sample-treated cells, as well as High and Low control, were stimulated in identical manner. Quantification of substrate phosphorylation was assessed in 96 well plates via sandwich ELISA using a substrate specific capture antibody and an anti-phosphotyrosine detection antibody. Raw data were converted into percent substrate phosphorylation relative to High control, set to 100%. […] The equation is a four-parameter logistic equation.

[5] = system: arachidonic acid-induced ear edema; conditions: mouse ear; cited from earlier work
[6] = system: immune-complex-induced peritoneal inflammation; conditions: mouse, intraperitoneal, fine suspension in saline; cited from earlier work
Kit (human) = target: T4, Kit (human) (Homo sapiens, UniProt P10721); experiment: Millipore KinaseProfiler radiometric-based filtration binding assay of Kit kinase; conditions: biochemical assay, read-out: IC50 of Kit kinase inhibition (converted)
T4 construct: purchased EMD Millipore Corporation (KinaseProfiler service)
T4 sequence (P10721 26-976): as the sequence (P10721 26-976) above
Protocol: To characterize the inhibitory activity of FPL-62064 against Kit kinase, the drug was tested using Millipore KinaseProfiler radiometric-based filtration binding assay (EMD Millipore Corporation, Billerica, Mass.). In a final reaction volume of 25 μL, Kit (human) (5-10 mU) was incubated with 8 mM MOPS pH 7.0, 0.2 mM EDTA, 10 mM MnCl2, 0.1 mg/mL poly(Glu, Tyr) 4:1, 10 mM MgAcetate and 10 μM [γ^33P-ATP] (specific activity approx. 500 cpm/pmol). The reaction was initiated by the addition of the MgATP mix. After incubation for 40 minutes at room temperature, the reaction was stopped by the addition of 5 μL of a 3% phosphoric acid solution. 10 μL of the reaction was then spotted onto a Filtermat A and washed three times for 5 minutes in 75 mM phosphoric acid and once in methanol prior to drying and scintillation counting.

[7] = system: UV irradiation-induced erythema; conditions: guinea pig; cited from earlier work
[8] = system: PGS in intact RBL-1 cells; conditions: cited from earlier work
[9] = cited from earlier work
[10] = system: darker human skin (pigmentation); experiment: Single-blind pilot clinical study of skin lightening on darker human skin; assay type: in vivo; conditions: day 29 / end of study, significance at p<0.05
Protocol: The study protocol and informed consent form were reviewed and approved by the Guangzhou Institutional Review Board (Guangzhou, China) prior to the initiation of the study. […]
The following test formulations were prepared and pH of each formulation was measured, as shown below. […]
Lower back of each subject was used as the test area. Five identically sized application sites (square 3 cm by 3 cm) were marked on the skin of each subject and labeled A through E. 0.1 gram of each material, as measured by extrusion from a syringe, was applied on the appropriate site, using a gloved finger, by a trained technician, guided by markings on the skin and the application site diagram. […]
L value (brightness) reading was taken in duplicate with the spectrophotometer CM-2600d (Konica Minolta, Osaka, Japan). The melanin (M) index reading was taken in duplicate with a Mexameter® MX18 (Courage & Khazaka, Cologne, Germany). […]
Statistical analysis was performed using the computer program SigmaStat 11 (Systat Software Inc., Chicago, Ill., USA) on a Microsoft Windows computer. For all data (Visual Scoring (VS), L value (brightness) (L), and MeIanin Index (M)), the baseline readings were subtracted prior to analysis. […]

carrageenin foot edema = conditions: rats, oral route, doses up to 200 mg/kg; cited from earlier work

IC50 ([4]; 90 min incubation, 100 ng/ml Kit ligand): 1.2 µM | IC50 ([4]; same value in mass units): 1.13 µM | IC50 (Kit (human); 10 μM ATP): 6.9 µM and 6.89 µM | IC50 (Kit (human); same value in mass units): 7.54 µM
Compound: COc1ccc(Nc2ccn(-c3ccccc3)n2)cc1 [FPL-62064, N-(4-methoxyphenyl)-1-phenyl-1H-pyrazol-3-amine]
adverse events, sensitivity or irritation at treated sites (human skin): well tolerated | safety and tolerability of topical application [1]: safe and well tolerated | IC50 (5-lipoxygenase (5-LO)): 3.5 to 11.5 µM | IC50 [2]: 3.1 µM | IC50 [3]: 31 µM | edema and eicosanoid formation (rabbit skin edema): inhibited | edema formation and eicosanoid production induced by arachidonic acid [5]: inhibited | activity against immune-complex-induced peritoneal inflammation [6]: demonstrated local activity | UV irradiation-induced erythema and prostaglandin E2 formation [7]: inhibited | IC50 [8]: 3.6 µM | topical bioavailability ([9]; topical): topically bioavailable | metabolism ([9]; upon intravenous administration): rapidly and extensively metabolized | change of the melanin index (M) from baseline compared to the control site (Formulation D, vehicle) [10]: statistically significant decrease | activity against carrageenin foot edema (carrageenin foot edema): inactive
